The source made the active and inactive calls. The rule behind the calls is not given here.

Series [1] addresses Non-receptor tyrosine-protein kinase TYK2 (Homo sapiens, UniProt P29597). The series is described as follows: Inhibition of recombinant human N-terminal GST-tagged TYK2 cytoplasmic domain (833 to 1187 residues) expressed in baculovirus expression system using TK-substrate-biotin preincubated for 5 mins followed by substrate addition and measured after 30 mins by HTRF assay. In general terms: Time-resolved FRET reads energy transfer from a long-lived donor to a nearby acceptor.

Series [2] can be described thus: Cmax in ICR mouse at 30 mg/kg, po administered as single dose via gavage by LC-MS/MS analysis. The class given is ADME, organism-based. The arrangement: route oral, dose 30 mg/kg. The conditions noted are these: in vivo.
Series [3] deals with BLK (Tyrosine-protein kinase Blk) (Homo sapiens, UniProt P51451). Kind of series: Inhibition of recombinant human His-tagged full length BLK expressed in baculovirus expression system at 100 nM using Tyr01 peptide as substrate incubated for 1 hr in presence of ATP by Z'-LYTE assay relative to control. The conditions noted are these: probe Tyr01 peptide.
Series [4] in a line: AUC (0 to t) in ICR mouse at 10 mg/kg, iv administered as single dose by LC-MS/MS analysis. The class given is ADME, organism-based. The arrangement: dose 10 mg/kg. The note with it: in vivo.
Series [5] deals with ERBB2 (Receptor tyrosine-protein kinase erbB-2) (Homo sapiens, UniProt P04626). The series is described as follows: Inhibition of His-tagged human recombinant ERBB2 (676 to 1255 residues) expressed in baculovirus expression system at 100 nM using Tyr 06 as substrate preincubated for 1 hr in presence of ATP by Z'-LYTE assay relative to control. The conditions noted are these: probe Tyr 06.
Chain of ERBB2 (Receptor tyrosine-protein kinase erbB-2) (P04626 whole entry, the tested form may be a part): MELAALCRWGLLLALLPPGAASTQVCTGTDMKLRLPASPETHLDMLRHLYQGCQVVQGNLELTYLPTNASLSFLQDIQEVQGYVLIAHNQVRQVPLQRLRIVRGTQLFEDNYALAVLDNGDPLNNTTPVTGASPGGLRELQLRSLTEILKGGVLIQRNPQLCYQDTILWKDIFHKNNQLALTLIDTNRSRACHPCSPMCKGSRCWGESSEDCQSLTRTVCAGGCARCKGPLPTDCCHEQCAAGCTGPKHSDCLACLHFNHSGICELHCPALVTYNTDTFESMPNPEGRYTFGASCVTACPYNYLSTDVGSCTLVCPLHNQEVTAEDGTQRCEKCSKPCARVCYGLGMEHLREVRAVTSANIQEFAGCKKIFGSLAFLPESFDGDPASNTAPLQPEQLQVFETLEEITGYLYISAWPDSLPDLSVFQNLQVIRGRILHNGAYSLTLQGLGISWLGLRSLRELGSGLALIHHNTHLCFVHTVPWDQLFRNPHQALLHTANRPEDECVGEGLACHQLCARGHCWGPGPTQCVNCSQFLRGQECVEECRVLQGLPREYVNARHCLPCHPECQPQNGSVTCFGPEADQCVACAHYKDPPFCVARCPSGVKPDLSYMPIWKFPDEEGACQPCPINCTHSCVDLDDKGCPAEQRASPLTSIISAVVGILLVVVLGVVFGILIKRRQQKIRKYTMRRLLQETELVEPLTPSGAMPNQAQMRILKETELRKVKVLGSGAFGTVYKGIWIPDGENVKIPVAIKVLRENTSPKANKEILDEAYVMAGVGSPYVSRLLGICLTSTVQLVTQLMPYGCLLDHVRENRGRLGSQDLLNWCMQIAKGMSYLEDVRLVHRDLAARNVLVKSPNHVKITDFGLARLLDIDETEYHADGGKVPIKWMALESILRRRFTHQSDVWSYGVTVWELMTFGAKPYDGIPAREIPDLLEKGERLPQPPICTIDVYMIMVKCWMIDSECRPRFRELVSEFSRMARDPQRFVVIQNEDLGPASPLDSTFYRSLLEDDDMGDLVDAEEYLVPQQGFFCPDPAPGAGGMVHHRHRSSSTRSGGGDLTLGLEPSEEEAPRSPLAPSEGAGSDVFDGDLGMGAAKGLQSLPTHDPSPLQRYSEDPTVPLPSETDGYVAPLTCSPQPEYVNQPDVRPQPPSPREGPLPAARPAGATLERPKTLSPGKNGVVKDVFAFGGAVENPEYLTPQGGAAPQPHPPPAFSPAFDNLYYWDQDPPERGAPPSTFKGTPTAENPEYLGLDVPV

The nature of series [6]: Terminal half life in ICR mouse at 10 mg/kg, iv administered as single dose by LC-MS/MS analysis. The class given is ADME, organism-based. The conditions noted are these: in vivo, read-out: beta t1/2 (converted).
The target of series [7] is Tyrosine-protein kinase JAK2 (Homo sapiens, UniProt O60674). The class given is ADME.
Chain of Tyrosine-protein kinase JAK2 (O60674 whole entry): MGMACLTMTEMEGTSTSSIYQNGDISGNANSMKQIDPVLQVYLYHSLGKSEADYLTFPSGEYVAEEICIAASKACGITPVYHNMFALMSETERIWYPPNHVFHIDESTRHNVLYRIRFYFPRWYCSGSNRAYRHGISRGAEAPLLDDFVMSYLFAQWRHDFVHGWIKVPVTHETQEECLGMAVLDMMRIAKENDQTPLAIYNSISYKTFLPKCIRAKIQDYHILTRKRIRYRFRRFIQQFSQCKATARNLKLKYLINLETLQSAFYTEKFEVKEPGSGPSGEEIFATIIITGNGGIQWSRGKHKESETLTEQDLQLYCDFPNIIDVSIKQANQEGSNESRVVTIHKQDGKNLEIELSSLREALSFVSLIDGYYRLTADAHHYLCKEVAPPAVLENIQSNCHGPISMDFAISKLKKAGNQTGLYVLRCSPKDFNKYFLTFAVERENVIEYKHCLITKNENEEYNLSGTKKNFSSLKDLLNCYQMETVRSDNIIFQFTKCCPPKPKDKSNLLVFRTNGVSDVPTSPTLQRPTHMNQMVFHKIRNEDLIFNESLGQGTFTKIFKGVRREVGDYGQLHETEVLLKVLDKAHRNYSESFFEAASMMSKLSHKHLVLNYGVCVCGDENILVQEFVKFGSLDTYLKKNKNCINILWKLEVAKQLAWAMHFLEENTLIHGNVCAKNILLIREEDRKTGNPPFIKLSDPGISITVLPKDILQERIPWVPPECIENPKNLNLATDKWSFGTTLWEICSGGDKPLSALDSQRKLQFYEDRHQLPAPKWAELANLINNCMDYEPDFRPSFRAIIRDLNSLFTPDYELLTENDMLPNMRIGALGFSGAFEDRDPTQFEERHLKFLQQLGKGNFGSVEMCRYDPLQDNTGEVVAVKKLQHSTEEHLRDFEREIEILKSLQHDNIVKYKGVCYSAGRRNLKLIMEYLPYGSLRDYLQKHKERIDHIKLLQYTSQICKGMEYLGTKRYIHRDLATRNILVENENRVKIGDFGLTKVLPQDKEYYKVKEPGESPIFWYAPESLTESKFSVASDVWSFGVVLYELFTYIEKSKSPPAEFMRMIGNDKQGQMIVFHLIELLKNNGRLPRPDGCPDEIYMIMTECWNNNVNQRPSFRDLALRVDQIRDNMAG
Series [8] deals with T1, Tyrosine-protein kinase JAK3 (Mus musculus) (UniProt Q62137).
T1 sequence (whole entry): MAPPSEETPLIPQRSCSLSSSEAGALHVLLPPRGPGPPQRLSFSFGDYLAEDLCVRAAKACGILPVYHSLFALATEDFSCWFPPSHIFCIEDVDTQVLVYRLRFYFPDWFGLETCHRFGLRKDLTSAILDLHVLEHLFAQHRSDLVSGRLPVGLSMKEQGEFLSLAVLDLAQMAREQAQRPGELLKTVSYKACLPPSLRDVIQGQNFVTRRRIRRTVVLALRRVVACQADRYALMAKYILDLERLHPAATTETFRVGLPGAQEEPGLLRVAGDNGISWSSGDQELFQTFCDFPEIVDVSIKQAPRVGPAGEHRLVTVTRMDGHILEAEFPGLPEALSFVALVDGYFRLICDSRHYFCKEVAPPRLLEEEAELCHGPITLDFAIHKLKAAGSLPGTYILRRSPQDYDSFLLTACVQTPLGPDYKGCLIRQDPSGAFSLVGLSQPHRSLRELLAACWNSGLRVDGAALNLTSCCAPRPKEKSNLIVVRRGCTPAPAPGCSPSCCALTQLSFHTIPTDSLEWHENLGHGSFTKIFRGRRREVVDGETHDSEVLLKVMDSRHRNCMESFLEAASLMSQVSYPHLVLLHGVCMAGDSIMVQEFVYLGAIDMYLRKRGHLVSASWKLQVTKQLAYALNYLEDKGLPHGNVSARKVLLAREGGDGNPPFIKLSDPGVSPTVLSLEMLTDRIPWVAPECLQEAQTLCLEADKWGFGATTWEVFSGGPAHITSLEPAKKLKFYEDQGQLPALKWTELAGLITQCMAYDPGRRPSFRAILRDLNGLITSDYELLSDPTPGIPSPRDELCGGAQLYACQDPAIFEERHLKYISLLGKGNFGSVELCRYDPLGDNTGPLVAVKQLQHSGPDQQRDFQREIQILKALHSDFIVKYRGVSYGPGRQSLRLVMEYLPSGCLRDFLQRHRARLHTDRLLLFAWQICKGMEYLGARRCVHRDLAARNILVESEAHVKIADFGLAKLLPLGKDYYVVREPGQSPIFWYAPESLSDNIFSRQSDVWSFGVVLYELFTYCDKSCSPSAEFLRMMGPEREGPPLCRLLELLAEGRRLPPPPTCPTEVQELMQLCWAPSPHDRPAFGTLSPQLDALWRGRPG
The series is described as follows: Inhibition of JAK3 in anti-CD3/-CD28 coated mouse T cells assessed as reduction in IL2-induced STAT5 phosphorylation preincubated for 1 hr followed by IL2 stimulation and measured after 30 mins by Western blot analysis. The conditions noted are these: T cell. (A western blot detects proteins with antibodies after separation by electrophoresis.)

A short description of series [9]: MRT (0 to infinity) in ICR mouse at 30 mg/kg, po administered as single dose via gavage by LC-MS/MS analysis. The conditions noted are these: in vivo. The class given is ADME, organism-based.
Series [10] can be described thus: Oral bioavailability in ICR mouse at 30 mg/kg administered as single dose via gavage by LC-MS/MS analysis. The class given is ADME, organism-based. The conditions noted are these: in vivo.
Series [11] concerns the target EGFR (Epidermal growth factor receptor) (Homo sapiens, UniProt P00533). Kind of series: Inhibition of recombinant human GST-tagged EGFR (668 to 1210 residues) expressed in baculovirus expression system at 100 nM using Tyr04 peptide as substrate incubated for 1 hr by Z'lyte assay relative to control. The conditions noted are these: probe Tyr04 peptide.
Series [12] deals with T1, Tyrosine-protein kinase JAK3 (Mus musculus). Kind of series: Inhibition of JAK3 in anti-CD3/-CD28 coated mouse T cells assessed as reduction in IL2-induced STAT5 phosphorylation at 10 uM preincubated for 1 hr followed by IL2 stimulation and measured after 30 mins by Western blot analysis. The conditions noted are these: T cell.
A short description of series [13]: Terminal half life in ICR mouse at 30 mg/kg, po administered as single dose via gavage by LC-MS/MS analysis. The class given is ADME, organism-based. The conditions noted are these: in vivo, read-out: beta t1/2 (converted).
For series [14], the target named is RET (Proto-oncogene tyrosine-protein kinase receptor Ret) (Homo sapiens, UniProt P07949). Kind of series: Inhibition of recombinant human GST-tagged RET (658 to 1114 residues) expressed in baculovirus expression system at 100 nM using Tyr 02 as substrate incubated for 1 hr in presence of ATP by Z'-LYTE assay relative to control. The note with it: probe Tyr 02.

Chain of EGFR (Epidermal growth factor receptor) (P00533 whole entry, the tested form may be a part): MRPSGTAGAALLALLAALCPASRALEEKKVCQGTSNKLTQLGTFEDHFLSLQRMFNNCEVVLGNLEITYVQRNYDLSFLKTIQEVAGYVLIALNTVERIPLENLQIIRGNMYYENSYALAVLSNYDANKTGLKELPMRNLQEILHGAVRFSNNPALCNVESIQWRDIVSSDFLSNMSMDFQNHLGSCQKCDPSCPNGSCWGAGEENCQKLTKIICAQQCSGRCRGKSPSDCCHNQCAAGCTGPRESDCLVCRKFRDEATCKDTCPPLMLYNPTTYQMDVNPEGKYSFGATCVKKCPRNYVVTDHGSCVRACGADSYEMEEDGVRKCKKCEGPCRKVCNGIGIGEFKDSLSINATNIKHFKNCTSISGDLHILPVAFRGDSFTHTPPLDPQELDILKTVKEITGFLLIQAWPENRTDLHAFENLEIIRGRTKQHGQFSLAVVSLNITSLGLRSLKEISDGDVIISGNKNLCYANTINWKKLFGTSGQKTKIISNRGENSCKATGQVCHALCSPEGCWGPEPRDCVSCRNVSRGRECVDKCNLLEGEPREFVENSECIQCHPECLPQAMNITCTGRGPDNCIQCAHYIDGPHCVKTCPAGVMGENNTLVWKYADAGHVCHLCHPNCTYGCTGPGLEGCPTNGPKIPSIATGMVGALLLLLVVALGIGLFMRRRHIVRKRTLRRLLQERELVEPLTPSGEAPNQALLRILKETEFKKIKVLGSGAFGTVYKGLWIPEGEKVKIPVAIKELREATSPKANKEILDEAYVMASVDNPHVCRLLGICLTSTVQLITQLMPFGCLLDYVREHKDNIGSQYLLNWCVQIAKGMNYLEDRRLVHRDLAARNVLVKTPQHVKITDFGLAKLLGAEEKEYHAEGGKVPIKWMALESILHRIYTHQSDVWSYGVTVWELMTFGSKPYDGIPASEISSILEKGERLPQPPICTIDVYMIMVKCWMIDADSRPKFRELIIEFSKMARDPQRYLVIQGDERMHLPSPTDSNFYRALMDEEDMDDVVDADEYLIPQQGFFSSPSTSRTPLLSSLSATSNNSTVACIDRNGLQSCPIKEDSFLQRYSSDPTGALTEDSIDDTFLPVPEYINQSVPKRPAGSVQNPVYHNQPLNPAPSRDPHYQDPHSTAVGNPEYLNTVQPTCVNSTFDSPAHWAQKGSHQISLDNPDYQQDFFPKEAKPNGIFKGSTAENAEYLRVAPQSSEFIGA
Chain of Non-receptor tyrosine-protein kinase TYK2 (P29597 whole entry, the tested form may be a part): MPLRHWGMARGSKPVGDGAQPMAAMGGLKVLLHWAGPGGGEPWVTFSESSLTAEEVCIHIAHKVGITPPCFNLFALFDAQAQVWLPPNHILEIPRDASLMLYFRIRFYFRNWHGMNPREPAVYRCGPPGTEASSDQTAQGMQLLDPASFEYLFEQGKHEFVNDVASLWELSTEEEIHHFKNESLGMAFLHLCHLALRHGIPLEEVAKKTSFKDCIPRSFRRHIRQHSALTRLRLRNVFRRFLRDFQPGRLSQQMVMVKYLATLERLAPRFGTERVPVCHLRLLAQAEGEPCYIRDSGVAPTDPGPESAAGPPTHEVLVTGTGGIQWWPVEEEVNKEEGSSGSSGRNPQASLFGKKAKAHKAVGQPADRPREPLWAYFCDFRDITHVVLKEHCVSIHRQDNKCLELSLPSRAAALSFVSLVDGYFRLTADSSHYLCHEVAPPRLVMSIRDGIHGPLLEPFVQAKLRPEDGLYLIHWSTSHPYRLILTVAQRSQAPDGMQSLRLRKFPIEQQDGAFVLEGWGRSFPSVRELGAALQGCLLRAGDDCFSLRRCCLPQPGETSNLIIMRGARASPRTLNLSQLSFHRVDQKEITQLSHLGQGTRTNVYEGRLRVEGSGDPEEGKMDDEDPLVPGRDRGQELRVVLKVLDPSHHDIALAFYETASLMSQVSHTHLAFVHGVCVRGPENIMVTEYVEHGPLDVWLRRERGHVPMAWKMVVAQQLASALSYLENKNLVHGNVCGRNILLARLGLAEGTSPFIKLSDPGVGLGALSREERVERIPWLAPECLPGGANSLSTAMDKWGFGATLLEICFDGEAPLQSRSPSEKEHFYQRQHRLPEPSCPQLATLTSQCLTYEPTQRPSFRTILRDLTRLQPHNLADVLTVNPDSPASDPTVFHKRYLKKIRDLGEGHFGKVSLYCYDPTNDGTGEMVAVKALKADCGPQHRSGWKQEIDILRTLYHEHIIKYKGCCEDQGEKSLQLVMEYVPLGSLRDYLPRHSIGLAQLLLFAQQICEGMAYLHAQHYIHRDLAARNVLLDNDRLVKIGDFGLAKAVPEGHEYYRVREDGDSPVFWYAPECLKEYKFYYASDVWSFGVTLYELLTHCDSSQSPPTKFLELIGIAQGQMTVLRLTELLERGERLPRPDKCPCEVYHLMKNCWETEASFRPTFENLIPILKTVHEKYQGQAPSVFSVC

What is called IC50 is the point on the concentration scale where inhibition reaches its midpoint. A word on the Cmax: it is the maximum level reached in the sampled fluid or tissue. As usually defined, the inhibition is the relative decrease from the control value, in per cent. The AUC(0-t) is exposure summed from dosing to a finite time, without extrapolation to infinity. Low readings indicate less exposure, high ones more exposure. A word on the MRT inf: it is the average time that molecules of a dose stay in the body. The term bioavailability denotes dose-corrected exposure relative to a reference, in per cent. A high value points to much systemic uptake. Turning to `C=CC(=O)Nc1ccc(-c2ccnc(Nc3ccc(N4CCOCC4)cc3)n2)cc1`, the IC50 was found to be 2780 nM in series [1] and 1000 nM in [7]. Also, in [2], the peak concentration (Cmax) amounted to 2010 ng/mL. In addition, the inhibition at 1 h, 0.1 µM in series [3] came out at 20.6%; in [5], 19.2%; in series [11], 1.2%; in series [14] it was 2.9%. The same molecule gave an exposure AUC(0-t) in series [4] of 1240 ng·h/mL. The half-life was 28.2 min in [6] and 91.2 min in [13]. For the same molecule, the inhibition entry in series [8] was “Dose-dependent effect”. Moreover, the MRT inf in series [9] was found to be 1.42 h. In series [10], this molecule displayed a bioavailability of 23.8%. In addition, the inhibition result in series [12] was “Active”.

(Values after ChEMBL document CHEMBL4680201, “Design, synthesis, and pharmacological evaluation of 4- or 6-phenyl-pyrimidine derivatives as novel and selective Janus kinase 3 inhibitors” (Eur J Med Chem, 2020).)
